This is an account of results in patent publication US20100221398A1, “PRESERVATIVE” (priority 2007, published 2010).

The test system of assay [1] is PadA1 activity in A. niger conidiospores. The assay is described as follows: 4-MCA cloud disappearance (OD 600 nm) assay for PadA1 activity in mould spores. The assay is classed as cell-based, Aspergillus niger. The note with it: 1 mM 4-methylcinnamic acid + 1 mM putative inhibitor, 10^6 conidiospores/ml, ACM pH 4.0, 28 C, samples at 5 and 72 hours. The method, then: FIG. 2—illustrates the disappearance of the dense cloud of 4-methylcinnamic acid after addition of A. niger spores. The strain of A. niger used is A. niger N402. 10^6 A. niger conidiospores/ml were added to ACM medium (Aspergillus Complete Medium—which contains per one litre of water, 20 g glucose, 1.5 g casamino acids, 2 g bacteriological peptone, 1.5 g yeast extract, 6 g […], 0.52 g potassium chloride, 0.52 g magnesium sulphate heptahydrate, 1.52 g potassium orthophosphate, 1 mg ferrous sulphate, 1 mg zinc sulphate) at pH 4.0 containing 1 mM 4-methylcinnamic acid at time 0. Replicate cultures of 10 mls medium in 30 ml sealed bottles were incubated at 28° C. and shaken at 120 rpm on an orbital shaker. Each point represents the mean value of two bottles removed, sampled, and tested in a spectrophotometer at 600 nm;
10^6 A. niger conidiospores/ml were added to ACM medium at pH 4.0 containing 1 mM 4-methylcinnamic acid at time 0 (control—circles). Replicate cultures contained 1 mM 4-methylcinnamic acid+1 mM cinnamaldehyde (squares). Bottles were incubated at 28° C. and shaken at 120 rpm on an orbital shaker.
In the examples below a carboxylic acid similar to sorbic acid was used as it has unexpected properties which allow it to be easily assayed. The acid used was 4-methylcinnamic acid (4-MCA), which like sorbic acid is degraded by A. niger spores.
Unexpectedly 4-MCA forms a dense white cloud when added to water or growth media for moulds (such as ACM). The opacity of the cloud, when measured at an OD of 600 nm, is directly proportional to the concentration of 4-MCA. This makes it easy to assay for changes in 4-MCA levels. Up until now degradation of 4-MCA and sorbic acid has been determined through the detection of the volatile products produced after decarboxylation. The volatile products can be detected by using GCMS (Gas Chromatography/Mass Spectrometry), which is a slow and time consuming process.
It is understood that PadA1 in the germinating mould spores degrades the 4-MCA causing the white cloud to progressively disappear. Cloud disappearance is also accompanied by appearance of 4-methylstyrene in the headspace above the liquid medium (as illustrated in FIG. 3), which is measured by GCMS.
(§1) All compounds were tested to see if they prevented the degradation of 4-MCA by adding 10^6 A. niger conidiospores/ml to ACM medium at pH 4.0 containing 1 mM 4-methylcinnamic acid+1 mM putative inhibitor. Bottles were incubated at 28° C. and shaken at 120 rpm on an orbital shaker. Samples were taken at 5 and 72 hours.

Assay [2] relates to A. niger N402 conidiospores. The assay is described as follows: MIC determination in ACM medium pH 4.0. It counts as cell-based, Aspergillus niger. The note with it: 1000 A. niger N402 conidiospores/ml, ACM pH 4.0, 28 C, 28 days, triplicate. The method, then: The possibility that the compounds found to inhibit 4-MCA degradation were acting as toxic agents was examined, by determination of their MIC (Minimum Inhibitory Concentration) values. The MIC value is the lowest concentration of inhibitor that will completely prevent growth of a microbe. In this case, MIC values were determined by preparation of a triplicate series of bottles of ACM medium (pH 4.0 10 mls) each bottle containing progressively higher concentrations of an inhibitor. Bottles were inoculated with 1000 A. niger N402 conidiospores/ml and were incubated at 28° C. for 28 days. The MIC was the lowest concentration of inhibitor preventing mould growth in all three replicates, and any other higher concentration of inhibitor.

The test system of assay [3] is A. niger conidiospores. The experiment in a line: Mould growth in bottles containing 1 mM 4-MCA + 1 mM putative inhibitor. It counts as cell-based, Aspergillus niger. The note with it: 1 mM 4-MCA + 1 mM compound. On the procedure:
as §1
Furthermore, other compounds generally more mould-toxic than the compounds listed in Table 2, were not able to inhibit mould growth when allied with 4-MCA at 1 mM e.g. (2,4-decadienal).

Assay [4] deals with Aspergillus niger strain N402 conidiospores. The experiment in a line: Spoilage of synthetic soft drink (ACM pH 4.0) with 300 ppm sorbic acid. It counts as cell-based. The note with it: 300 ppm sorbic acid (2.68 mM) without PadA1 inhibitor, 28 days at 28 C.
Method: Tests were carried out using ACM medium, pH 4.0, as a synthetic soft drink. Sorbic acid was added to the ACM, synthetic soft drink, at 300 ppm, which is the maximum level permitted in Europe.
The method used involved placing 10 ml of ACM pH 4.0+300 ppm sorbic acid (2.68 mM) in glass bottles (all experiments were carried out in triplicate) and inncoculating each 10 mls with 1000 conidiospores per ml of Aspergillus niger strain N402. Growth was measured after 28 days incubation at 28° C. PadA1 inhibitors of Formula I were added at 0, 0.025 mM, 0.05 mM, 0.1 mM, 0.15 mM, 0.2 mM, 0.3 mM, 0.4 mM, 0.5 mM, 0.6 mM, 0.8 mM, 1 mM.

Consider `CCCCCC=CC=CC=O` [2,4-decadienal], for which, in assay [1], the “inhibition of degradation of 4-MCA by germinating conidiospores of A. niger” value (“inhibition of degradation of 4-MCA” below) was “does not block PadA1 activity”. In assay [2], the “MIC (Minimum Inhibitory Concentration), comparison in words” value is reported as “lower MIC than any of the compounds listed on Table 2”. Besides, the “mould growth in bottles with 4-MCA + compound” value in assay [3] is given as “Mould growth occurred”. `O=C(O)C#Cc1ccccc1` [Phenyl propiolic acid]: in assay [1], the “inhibition of degradation of 4-MCA” value is listed as “inhibited degradation”. Turning to `CCC=CC=CC=O` [2,4-Heptadienal], in assay [3], the “mould growth in bottles with 4-MCA + compound” value is on record as “not”. For the compound `CC=CC=CC(=O)O` [sorbic acid, 2,4-hexadienoic acid], in assay [4], the “prevention of spoilage by A. niger conidiospores of the synthetic soft drink, sorbic acid alone” value is recorded as “insufficient to prevent spoilage”. As to `O=CC#Cc1ccccc1` [phenyl propargyl aldehyde], in assay [1], the “inhibition of degradation of 4-MCA” value is “inhibited degradation”. Same read-out and setting: the entry for `O=CC=Cc1ccccc1` [Cinnamaldehyde] is “inhibits the degradation”.
